Test results published in US20230414602A1, “PHARMACEUTICAL COMPOSITION COMPRISING INSOLUBLE CAMPTOTHECIN COMPOUND-CONTAINING NANOPARTICLE FOR TREATMENT OF CANCER AND COMBINATION THERAPY THEREOF” (SNBioScience Inc., priority 2020, published 2023).
Where a name gives a salt, the structure may show the parent alone.

Legend:
[1] = Body weight of AsPC-1 xenograft mice (Example 2); type: in vivo, BALB/c nu/nu male mice
AsPC-1 cells = assay: AsPC-1 pancreatic cancer xenograft, tumor volume and tumor weight (Example 2); conditions: excised day 22; nab-paclitaxel 5, irinotecan HCl 50, SNB-101 low dose 10/15.9 mg/kg/day
Description: As a pancreatic cancer cell line for a pancreatic cancer xenograft model, AsPC-1 was used. AsPC-1 cells are aggressive cells and are known to have resistance to gemcitabine.

[2] = tested on: HT-29 colorectal cancer cells; assay: HT-29 colorectal cancer xenograft, tumor volume (Example 5); type: in vivo, BALB/c nude mice
Description: A total of 150 BALB/c nude mice (5-week-old males) were obtained and acclimatized for about one week before transplantation of HT-29 colorectal cancer cells into the subcutaneous area of the right hip. […] after transplantation, 50 mice were selected on the basis of the tumor volume and classified into five groups of 10.
[…] after transplantation of the HT-29 colorectal cancer cells, mice were selected based on the tumor volume and randomly divided into 5 groups (10 mice/group). The drug administration group was set as in Table 13, below.
An autopsy was performed on day 28. A 5% dextrose solution used as a vehicle for the control was equally administered at a dose of 10 mL/kg.
Test results are expressed as mean±S.D. in Table 14, below.

[3] = Body weight of MDA-MB-231 xenograft mice (Example 4); type: in vivo, BALB/c nu/nu male mice
Method: (§1) Tumor volume and body weight were measured twice a week (intervals of 3 or 4 days) from the time of grouping to the end of the test, and a tumor growth curve was constructed from the start of drug administration to the end of the test.

[4] = Body weight of A549 xenograft mice (Example 4); type: in vivo, BALB/c nu/nu male mice
Method: as §1

MDA-MB-231 = assay: Breast cancer MDA-MB-231 xenograft, tumor volume and TGI (Example 4); type: in vivo, BALB/c nu/nu male mice; conditions: docetaxel 5->15 mg/kg, SNB-101 20 mg/kg (as SN-38), i.v. Q1W x 6
Method: (§2) The thawed cells were cultured for one week or longer, with passages every two or three days. The cells were assayed for viability (trypan blue) and infection with bacteria and yeasts (cell images) and mycoplasma (MycoAlert Mycoplasma detection kit).
as §1
(§3) As of the end of the experiment, relative tumor growth inhibition (TGI) to the vehicle was calculated using the following equation.
Tumor growth inhibition (TGI) (%)={1−(ΔT/ΔC)}×100 Equation 2

A549 = assay: Lung cancer A549 xenograft, tumor volume and TGI (Example 4); type: in vivo, BALB/c nu/nu male mice; conditions: docetaxel 5->10 mg/kg, SNB-101 20 mg/kg (as SN-38), i.v. Q1W x 5
Method: as §2, §1, §3
Tumor growth inhibition (TGI)(%)={1−(ΔT/ΔC)}×100 Equation 2

CCc1c2c(nc3ccc(OC(=O)N4CCC(N5CCCCC5)CC4)cc13)-c1cc3c(c(=O)n1C2)COC(=O)[C@]3(O)CC [Irinotecan HCl, irinotecan hydrochloride]
Body weight, Day 0 ([1]; Day 0, i.v., nab-paclitaxel 5, irinotecan HCl 50, SNB-101 low dose 10/15.9 mg/kg/day (SN-38/irinotecan HCl)): 21.3 ± 0.9 g | Body weight, Day 3 ([1]; Day 3, i.v., nab-paclitaxel 5, irinotecan HCl 50, SNB-101 low dose 10/15.9 mg/kg/day): 22.1 ± 1.1 g | Body weight, Day 7 ([1]; Day 7, i.v., nab-paclitaxel 5, irinotecan HCl 50, SNB-101 low dose 10/15.9 mg/kg/day): 22.8 ± 1.1 g | Body weight, Day 11 ([1]; Day 11, i.v., nab-paclitaxel 5, irinotecan HCl 50, SNB-101 low dose 10/15.9 mg/kg/day): 22.9 ± 1.2 g | Body weight, Day 14 ([1]; Day 14, i.v., nab-paclitaxel 5, irinotecan HCl 50, SNB-101 low dose 10/15.9 mg/kg/day): 23.4 ± 1.2 g | Body weight, Day 17 ([1]; Day 17, i.v., nab-paclitaxel 5, irinotecan HCl 50, SNB-101 low dose 10/15.9 mg/kg/day): 22.9 ± 1.2 g | Body weight, Day 21 ([1]; Day 21, i.v., nab-paclitaxel 5, irinotecan HCl 50, SNB-101 low dose 10/15.9 mg/kg/day): 22.6 ± 1.2 g | Body weight, Day 22 ([1]; Day 22 (autopsy), i.v., nab-paclitaxel 5, irinotecan HCl 50, SNB-101 low dose 10/15.9 mg/kg/day): 21.7 ± 1.3 g | weight loss rate compared to G1 (vehicle group) ([1]; day 22, nab-paclitaxel 5, irinotecan HCl 50, SNB-101 low dose 10/15.9 mg/kg/day): 10.0% | Tumor weight (AsPC-1 cells): 0.489 ± 0.101 g

Bevacizumab: monoclonal antibody and target anticancer drug (trade name Avastin)
Tumor volume (mm^3) Test start A (day 1) ([2]; day 1, SNB-101 20/31.8 mg/kg venous, bevacizumab 5 mg/kg peritoneal, irinotecan 50 mg/kg venous, days 1, 4, 7): 96.67 ± 14.79 mm^3 | Tumor volume (mm^3) Test end B (day 28) ([2]; day 28, SNB-101 20/31.8 mg/kg venous, bevacizumab 5 mg/kg peritoneal, irinotecan 50 mg/kg venous, days 1, 4, 7): 709.38 ± 266.87 mm^3 | Tumor Volume Change (mm^3) [B − A] ([2]; day 28 minus day 1, SNB-101 20/31.8, bevacizumab 5, irinotecan 50 mg/kg): 612.71 ± 259.64 mm^3

CC(=O)O[C@@]12CO[C@@H]1C[C@H](O)[C@@]1(C)C(=O)[C@H](O)C3=C(C)[C@@H](OC(=O)[C@H](O)[C@@H](NC(=O)OC(C)(C)C)c4ccccc4)C[C@@](O)([C@@H](OC(=O)c4ccccc4)[C@H]21)C3(C)C [Docetaxel, docetaxel]
Body weight at the start of drug administration (day 0) ([3]; day 0, MDA-MB-231 xenograft mice): 19.63 g | Body weight at the end of the test (day 35) ([3]; day 35, docetaxel 5->15 mg/kg, SNB-101 20 mg/kg (as SN-38), i.v. Q1W x 6): 20.25 g | Body weight at the start of drug administration (day 0) [4]: 17.93 g | average tumor volume (MDA-MB-231; end of experiment (35 days after drug administration)): 1,228.93 mm3 | TGI (%) (MDA-MB-231; relative to vehicle, end of experiment (day 35)): 27.6% | average tumor volume (A549; end of experiment (37 days after drug administration)): 402.70 mm3 | TGI (%) (A549; relative to vehicle, end of experiment (day 37)): 50.0%
